The values that follow come from US20120022048A1, “Anti-proliferative substituted pyrazolo[3,4-d]pyrimidines derivatives (SPP) to inhibit immune activation, virus replication and tumor growth” (priority 2010, published 2012).

The subject of data set [1] is Human peripheral blood mononuclear cells (PBMC). To be noted: 7 days.
In data set [2] the test system is HIV-1 NL 4.3. As to the kind of experiment: HIV-1 replication in activated T cells (PBMC, p24 Ag ELISA). Type of data set: cell-based. The conditions noted are these: for anti-HIV activity in activated T cells (in words): SPPs 10 μM, compared with HU 100 μM, HU+ddI or untreated control. The essentials: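 PBMC from healthy donors, stimulated two days with PHA 5 μg/ml, were infected with HIV-1 NL 4.3 and given IL-2 (20 U/ml) and compound at 10^5 cells per well. After 7 days at 37° C, supernatant p24 Ag was measured by ELISA against an untreated control.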
(In an ELISA, binding on a coated surface is turned into a signal by an enzyme label.)

Data set [3] concerns HIV-1 NL 4.3. As to the kind of experiment: HIV-1 replication in quiescent CD4 T cells (p24 Ag ELISA). Type of data set: cell-based. The conditions noted are these: for anti-HIV activity in quiescent cells (in words): compared with HU 100 μM, HU+ddI or untreated control. The essentials:
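Resting human CD4 T cells from healthy donors were infected, then stimulated with PHA 5 μg/ml on day 5 and IL-2 20 U/ml on day 7. Compounds were tested at 10 μM, with HU 100 μM ± ddI 2 μM as comparators. p24 was measured by ELISA on day 10 and expressed as % of untreated control.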

Data set [4] deals with Human peripheral blood mononuclear cells (PBMC). As to the kind of experiment: Cell cycle analysis of anti-CD3/anti-CD28 stimulated PBMC (Ki-67 and 7-AAD flow cytometry). Type of data set: cell-based. The conditions noted are these: 24 hours treatment; compared to the not treated control; FIG. 6. How it is done: A 48 well plate was coated with anti-CD3 antibody by dispensing 100 microliter of a 10 μg/ml antibody solution followed by overnight incubation at 4° C. Human peripheral blood mononuclear cells (PBMC), obtained from healthy, normal donors, were then plated (2×10^6 cells per well in 1 ml) in complete culture medium supplemented with anti-CD28 antibody (2 μg/ml). Stimulated cells were cultured for 2 days then treated with HU, CsA, and VS1-002 to induce cell cycle arrest.
For orientation: In flow cytometry, cells or beads pass a laser one at a time.

Data set [5] concerns primary human CD4 T-lymphocytes. As to the kind of experiment: Apoptosis in primary CD4 T cells (Annexin V and 7-AAD staining). Type of data set: cell-based. To be noted: for apoptotic effect (in words): compared with HU 100 μM, HU+ddI or untreated control. The essentials:
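Resting primary human CD4 T cells from healthy donors were PHA-activated (5 μg/ml) at day 5, with IL-2 (20 U/ml) added at day 7. Compounds were tested at 10 μM. At day 10, Annexin V/7-AAD staining gave percentage of total apoptotic events.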

Data set [6] has the same test system. As to the kind of experiment: Cell hyperproliferation in primary T cells (CFSE staining, mitotic index). To be noted: for anti-proliferative activity (in words): compared with HU 100 μM, HU+ddI or untreated control. Type of data set: cell-based. In a few lines:
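Primary human CD4 T cells were activated with PHA (5 μg/ml) on day 5, and IL-2 (20 U/ml) was added on day 7. Compounds were tested at 10 μM and cells harvested on day 10. Proliferation was measured by CFSE dilution as a normalized mitotic index, and apoptosis by Annexin V/7-AAD staining on day 10.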

Entries after “also recorded” stand apart in the source; their conditions may differ. Read-outs that look alike come from different tables or passages of the source.

Turning to `CCCCNc1nc(SCC)nc2c1cnn2CC(Cl)c1ccccc1` (stereo not shown) [VS1-002, N-butyl-1-(2-chloro-2-phenylethyl)-6-(ethylthio)-1H-pyrazolo[3,4-d]pyrimidin-4-amine], in data set [1] (human, 10 μM), the “% viability” value is 108.9 ± 8.7% and the “less toxicity than HU 100 μM+ddI 2 μM combination” value stood at 20%. The inhibition at 10 µM in the data set on HIV-1 NL 4.3 [2] (Human immunodeficiency virus 1, T-cell, activated T cells, 10 μM, read-out: inhibition of p24 production / HIV replication compared to untreated control) came out at 86%. The “anti-HIV activity in activated T cells (in words)” value in the data set with HIV-1 NL 4.3 [2] is recorded as “inhibited HIV replication in activated T cells”. Besides, in the data set on HIV-1 NL 4.3 [2] (class symbol, Table 6), the “Antiviral activity in activated cells” value is “+++ (excellent (+++, greater than 70% activity))”. Besides, the inhibition at 10 µM with HIV-1 NL 4.3 [3] (Human immunodeficiency virus 1, CD4+ T, quiescent cells, 10 μM, read-out: reduction of HIV-1 p24 production / inhibition of HIV replication compared to untreated control) was found to be 90%. Further, in the data set with HIV-1 NL 4.3 [3] (SPPs 10 μM), the “anti-HIV activity in quiescent cells (in words)” value was “antiviral activity in both quiescent and in hyperactivated cells”. Also, in the data set on HIV-1 NL 4.3 [3] (class symbol, Table 6), the “Antiviral activity in quiescent cells” value is given as “+++ (excellent (+++, greater than 70% activity))”. Moreover, the “effect on cell cycle phases (in words)” value in data set [4] is “decreased the percentage of cells in S phase with an increase in the percentage of cells in G1 phase”. In addition, in data set [5] (10 μM, spider graph FIG. 3), the “less proapoptotic effect than HU 100 μM+ddI 2 μM combination” value was “more than 20%”. Besides, in data set [5] (SPPs 10 μM), the “apoptotic effect (in words)” value is “did not affect the percentage of apoptotic events; also recorded: not proapoptotic”. Moreover, the “anti-proliferative activity (in words)” value in data set [6] (SPPs 10 μM, Imatinib 10 μM) is “as effective as 100 μM HU; also recorded: comparable to that of 100 μM HU and superior to that of Imatinib”. Besides, in data set [6] (class symbol, Table 6), the Anti-proliferative capacity entry is reported as “+++ (excellent (+++, greater than 70% activity))”.
Consider `NC(=O)NO` [HU, hydroxyurea, reference compound], for which, in the data set with HIV-1 NL 4.3 [2], the “anti-HIV activity in activated T cells (in words)” value is “not effective in inhibiting HIV replication”. Also, in the data set with HIV-1 NL 4.3 [3] (SPPs 10 μM), the “anti-HIV activity in quiescent cells (in words)” value was “potent antiviral activity”. In addition, in data set [4], the “effect on cell cycle phases (in words)” value is listed as “decreased the percentage of cells in S phase with an increase in the percentage of cells in G1 phase”. Moreover, the “apoptotic effect (in words)” value in data set [5] (SPPs 10 μM) is listed as “no significant increases; also recorded: did not substantially affect the percentage of total apoptotic events”. Besides, the inhibition at 100 µM in data set [6] (Homo sapiens, T-lymphocyte, read-out: decrease/inhibition of cell proliferation compared to not treated control) stood at 74%. Moreover, in data set [6] (SPPs 10 μM, Imatinib 10 μM), the “anti-proliferative activity (in words)” value is “did substantially decrease cell proliferation”.
Consider `CCOCCNc1nc(SC)nc2c1cnn2CC(Cl)c1ccccc1` (stereo not shown) [VS1-033], for which the “% viability” value in data set [1] (% of not treated control (100%), SPPs 10 μM, Imatinib 10 μM, HU 100 μM, HU 100 μM+ddI 2 μM) worked out at 108.1 ± 3.5%. In addition, the “HIV activated cells (% p24 compared to not treated control)” value in the data set with HIV-1 NL 4.3 [2] (activated T cells, 7 days, SPPs and Imatinib 10 μM, HU 100 μM, ddI 2 μM) turned out to be 57.1 ± 10.2%. Further, in the data set with HIV-1 NL 4.3 [3] (quiescent CD4 T cells, day 10, SPPs 10 μM, HU 100 μM, HU 100 μM+ddI 2 μM), the “HIV quiescent cells (percentage p24 compared to the untreated control)” value stood at 15.0 ± 3.0%. The apoptosis % in data set [5] (total apoptotic events compared to untreated control, day 10, SPPs 10 μM, Imatinib 10 μM, HU 100 μM, ddI 2 μM) was 138.6 ± 49.7%. The compound also returned a mitotic index % in data set [6] (% of not treated control (100%), day 10, SPPs 10 μM, Imatinib 10 μM, HU 100 μM) of 15.4 ± 6.7%. Besides, the “anti-proliferative activity (in words)” value in data set [6] (SPPs 10 μM, Imatinib 10 μM) is “comparable or even greater than HU”.
